Data set [1] addresses T1, GST-cGB-PDE5 fusion protein (cGMP binding sites of human PDE5A) (Homo sapiens, UniProt O76074).
T1 construct: made in house; host or cells: E. coli BL21 (DE3)
In words: cGMP binding assay with GST-cGB-PDE5 fusion protein. The conditions noted are these: for competition with cGMP binding to GST-cGB-PDE5 at high concentration: compound 100 μM, cGMP 2 μM. As for the experimental part:
5′-3′, Inc. kits for total RNA followed by oligo (dT) column purification of mRNA are used with HT-29 cells. […] It is then cloned into pGEX-5X-3 glutathione-S-transferase (GST) fusion vector (Pharmacia Biotech )with tac promoter, and EcoRI and XhoI cut sites. The fusion vector is then transfected into E. Coli BL21 (DE3) bacteria (Invitrogen). The transfected BL21 bacteria is grown to log phase, and then IPTG is added as an inducer. The induction is carried at 20° C. for 24 hrs. The bacteria are harvested and lysed. The soluble cell lysate is incubated with GSH conjugated Sepharose 4B (GSH-Sepharose 4B). The GST-cGB-PDE5 fusion protein can bind to the GSH-Sepharose beads, and the other proteins are washed off from beads with excessive cold PBS.
Then, the mixture is transferred to Brandel MB-24 cell harvester with GF/B as the filter membrane followed by 2 washes with 10 mL of cold 5 mM potassium buffer(pH 6.8). The membranes are then cut out and transferred to scintillation vials followed by the addition of 1 mL of H2O and 6 mL of Ready Safe™ liquid scintillation cocktail to each vial. The vials are counted on a Beckman LS 6500 scintillation counter.
The quenching by filter membrane or other debris are also calibrated.

The next data set addresses T2, PDE5 (Homo sapiens, UniProt O76074).
T2 construct: partially purified cGMP-specific PDE isolated from HT-29 cells; endogenous in cells; host or cells: HT-29
As to the kind of experiment: cGMP PDE inhibition, PDE5. The class given is biochemical.

Data set [2] can be described thus: acute toxicity study in rats. The data set is classed as in vivo.
Data set [3] is described as follows: acute and seven-dose toxicity in dogs (capsules). The data set is classed as in vivo.
Protocol: Therefore, these dogs were subsequently administered seven consecutive doses of 1000 mg/kg/day.
Data set [4] in a line: seven-day dose-range finding study in rats. The class given is in vivo. The conditions noted are these: seven days, 2000 mg/kg/day.
The nature of a further data set: 28-day study in rats. The conditions noted are these: 28 days. The data set is classed as in vivo. As for the experimental part:
A 28-day study in rats was also carried out at 0, 50, 500 and 2000 mg/kg/day.

Data set [5] can be described thus: long-term safety assessment study in rats, 91 days. The class given is in vivo. The note with it: males and females at 200 and 500 mg/kg/day.
Data set [6] in a line: 91-day oral study in dogs. The class given is in vivo. The note with it: 91 days, 150 and 300 mg/kg/day.
The nature of data set [7]: single, escalating dose human clinical safety study. The class given is in vivo. The note with it: oral, 50 mg BID, 100 mg BID, 200 mg BID and 400 mg BED.
In the next data set the test system is U937 cells. As to the kind of experiment: apoptosis induction of U937 cells (active caspase 3 indirect immunofluorescence). The class given is cell-based. The note with it: 1 μM. As to the method:
U937 cells (from ATCC Rockville, Md.) were grown in RPMI media supplemented with 5% FCS, glutamine, antibiotic/antimycotic and sodium pyruvate. Total RNA was isolated from two U937 cultures, one treated with 5 nM TPA for 48 hours and one grown in normal media as listed above, using the Rouche High Pure RNA Isolation Kit (cat#1 828 665) as per manufacturers protocol. cDNA was then synthesized from the total RNA using GibcoBRL SuperscriptII (Cat #18064-022) reverse transcriptase as per manufacturers protocol. The resulting cDNA was used as a template for RT-PCR reactions using primer sets specific for PDE2 (forward: […], reverse: […]) or PDE5 (forward: […], reverse: […]). mRNA for PDE2 and 5 were both present in the untreated U937 cells. Upon treatment with TPA, the relative amounts of PDE2 mRNA increased 5 fold. Therefore, U937 cells treated with TPA and driven to differentiate into an activated macrophage like state have elevated levels of PDE2 mRNA (see FIG. 1).
The presence of PDE2 and PDE5 protein within U937 cells was confirmed by indirect immunofluorescence (IIF). U937 cells were cultured as above. Two U937 cultures, one grown in the presence of 5 nM TPA for 48 hours and one grown in normal media were processed. […]
The level of apoptosis in U937 cells was quantified by scoring 500 consecutive cells for the presence of active caspase 3. […]

Data set [8] concerns TNF-α secreted by TPA-induced U937 cells. In words: TNF-α immunoassay on U937 cell culture media. The data set is classed as cell-based. The conditions noted are these: cell culture media (FIG. 12). As to the method:
One function of macrophages is to modulate the activity of other inflammatory cells through various cytokine molecules.
TNF-α levels in the cell culture media were determined by using the TNF-α Immunoassay from R&D Systems (Cat. # DTA50) according to the manufacturer's protocol.

Read-outs that look alike come from different tables or passages of the source. Bounds are passed on as bounds.

A word on the IC50: it is the concentration that inhibits the measured activity by half. Read a low IC50 as greater potency.

For `CCCCOC1C2OP(=O)(O)OCC2OC1n1cnc2c(N)ncnc21` (stereo not shown) [2′-O-butyl-cAMP], in data set [1] (3H-cGMP 2 μM), the “competition with cGMP in binding to cGMP binding sites of GST-cGB-PDE5” value (“competition with cGMP in binding” below) is “did not compete”.

In the case of `CCCCOC1C2OP(=O)(O)OCC2OC1n1cnc2c(=O)[nH]c(N)nc21` (stereo not shown) [2′-O-butyl-cGMP], in [1] (3H-cGMP 2 μM), the “competition with cGMP in binding” value is “did not compete”.

In the case of `CC1=C(CC(=O)NCc2ccccc2)c2cc(F)ccc2/C1=C\c1ccncc1.Cl` [Compound 38, (Z)-5-Fluoro-2-Methyl-(4-Pyridylidene)-3-(N-Benzyl)Indenylacetamide Hydrochloride], the “competition with cGMP in binding” value in [1] (3H-cGMP 2 μM) is given as “does not bind to the cGMP-binding site”. In addition, the IC50 at PDE5 worked out at 4 µM. For the same compound, the “intraperitoneal LD50” value in [2] (intraperitoneal) is given as “greater than 1000 mg/kg”. Also, the “oral LD50” value in [2] (oral) was greater than 2000 mg/kg; in [3], “greater than 1000 mg/kg”. The necropsy finding result in data set [2] (single dose 1000 mg/kg intraperitoneally) is “mesenteric adhesions seen in some animals”. For the same compound, the effects result in data set [4] was “labored breathing and/or abnormal respiratory sounds, decreased weights gains and food consumption in male rats, and increased liver weights in female rats”. The “body weight changes, ophthalmoscopic examinations, hematological and blood chemistry values and urinalysis” value in the data set “28-day study in rats” is “unremarkable”. In “28-day study in rats” (lower doses), the “liver and thyroid increases at the lower doses” value is given as “not statistically significant”. Besides, in data set [5], the “liver and thyroid/parathyroid weights” value was “dose-related trend to increased liver and thyroid/parathyroid weights”. Also, the feces entry in data set [6] is reported as “Orange discoloration of the feces”. In addition, the side effects result in [7] is “no significant side effects at any dose”. The “apoptosis as reflected by the presence of active caspase 3 (FIG. 8)” value in the data set with U937 cells is recorded as “undergoing apoptosis”. Besides, the “level of TNF-α secreted” value in [8] is “significantly reduced”.

For `Nc1ncnc2c1ncn2[C@@H]1O[C@@H]2COP(=O)(O)O[C@H]2[C@H]1O` [Cyclic AMP], in data set [1], the “competition with cGMP in binding” value is on record as “did not compete”.

As for `O=c1[nH]cnc2c1ncn2[C@@H]1O[C@@H]2COP(=O)(O)O[C@H]2[C@H]1O` [Cyclic IMP], in data set [1], the “competition with cGMP binding to GST-cGB-PDE5 at high concentration” value is “can partially compete”.

As to `Nc1nc2c(nc(Br)n2[C@@H]2O[C@@H]3COP(=O)(O)O[C@H]3[C@H]2O)c(=O)[nH]1` [Example 8-bromo-cGMP, 8-bromo-cGMP], the “competition with cGMP binding to GST-cGB-PDE5 at high concentration” value in data set [1] is “can partially compete”.

Turning to `O=C([O-])C1CCN(c2nc(NCc3ccc4c(c3)OCO4)c3cc(Cl)ccc3n2)CC1.[Na+]` [Example E4021], in data set [1] (3H-cGMP 2 μM), the “competition with cGMP in binding” value is “None of the PDE5 inhibitors showed any competition”.

As for `CSc1ccc(/C=C2/C(C)=C(CC(=O)O)c3cc(F)ccc32)cc1` [Sulindac sulfide, sulindac sulfide], in data set [1] (3H-cGMP 2 μM), the “competition with cGMP in binding” value was “None of the PDE5 inhibitors showed any competition”.

Take `Nc1ccn([C@@H]2O[C@@H]3COP(=O)(O)O[C@H]3[C@H]2O)c(=O)n1` [cCMP, cyclic CMP]: the “competition with cGMP in binding” value in [1] (3H-cGMP 2 μM) is given as “did not compete”.

For the compound `O=c1ccn([C@@H]2O[C@@H]3COP(=O)(O)O[C@H]3[C@H]2O)c(=O)[nH]1` [cUMP, cyclic UMP], the “competition with cGMP in binding” value in [1] (3H-cGMP 2 μM) is reported as “did not compete”.

For `CC1=C(CC(=O)O)c2cc(F)ccc2/C1=C\c1ccc(S(C)(=O)=O)cc1` [exisulind], the “competition with cGMP in binding” value in data set [1] (3H-cGMP 2 μM) is “None of the PDE5 inhibitors showed any competition”.

As for `CCCOc1ccccc1-c1nc2nn[nH]c2c(=O)[nH]1` [zaprinast], the “competition with cGMP in binding” value in data set [1] (3H-cGMP 2 μM) is listed as “None of the PDE5 inhibitors showed any competition”.

(Values after patent US20060252762A1, “Methods for treatment of multiple sclerosis” (priority 2001, published 2006).)
